In patent US6342602B1, “Aryl or heteroaryl amides of tetrahydronaphthalene, chroman, thichroman and 1,2,3,4-tetrahydroquinolinecarboxlic acids, having an electron withdrawing substituent in the aromatic or heteroaromatic moiety, having retinoid-like biological activity” (Allergan Sales, Inc., priority 1995, dated 2002):

Tests used:
RXRβ = target: T1, RXRβ (Homo sapiens, UniProt P28702); assay: Ligand binding assay; details: receptor expressed in Baculovirus; competition with [3H] retinoic acid; Cheng-Prusoff from IC50
T1 construct: made in house; used as extract protein
T1 sequence (P28702 1-533): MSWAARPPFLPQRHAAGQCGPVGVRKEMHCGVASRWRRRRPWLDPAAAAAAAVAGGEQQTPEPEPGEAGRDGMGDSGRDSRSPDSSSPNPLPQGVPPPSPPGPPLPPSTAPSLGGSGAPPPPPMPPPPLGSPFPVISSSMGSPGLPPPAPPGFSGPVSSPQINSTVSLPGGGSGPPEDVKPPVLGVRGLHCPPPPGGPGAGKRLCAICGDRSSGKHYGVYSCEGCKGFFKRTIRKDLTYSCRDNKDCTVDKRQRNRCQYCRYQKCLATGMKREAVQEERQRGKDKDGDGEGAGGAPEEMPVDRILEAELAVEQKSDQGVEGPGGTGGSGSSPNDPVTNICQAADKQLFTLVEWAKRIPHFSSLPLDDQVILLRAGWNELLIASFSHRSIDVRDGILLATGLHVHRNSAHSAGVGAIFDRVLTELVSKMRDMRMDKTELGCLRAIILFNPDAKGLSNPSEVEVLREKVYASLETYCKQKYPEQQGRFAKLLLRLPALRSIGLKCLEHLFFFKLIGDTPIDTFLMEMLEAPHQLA
Method: (§1) A holoreceptor transactivation assay and a ligand binding assay which measure the ability of the compounds of the invention to bind to the several retinoid receptor subtypes, respectively, are described in published PCT Application No. WO WO93/11755 (particularly on pages 30-33 and 37-41) published on Jun. 24, 1993, the specification of which is also incorporated herein by reference. A description of the ligand binding assay is also provided below.
(§2) All binding assays were performed in a similar fashion. All six receptor types were derived from the expressed receptor type (RAR α, β, τ and RXR α, β, τ) expressed in Baculovirus. Stock solutions of all compounds were prepared as 10 mM ethanol solutions and serial dilutions carried out into 1:1 DMSO; ethanol. Assay buffers consisted of the following for all six receptor assays: 8% glycerol, 120 mM KCl, 8 mM Tris, 5 mM CHAPS 4 mM DTT and 0.24 mM PMSF, pH-7.4@room temperature.
(§3) All receptor biding assays were performed in the same manner. The final assay volume was 250 μl and contained from […] of extract protein depending on receptor being assayed along with 5 nM of [^3H) alltrans retinoic acid or 10 nM [^3H) 9-cis retinoic acid and varying concentrations of competing ligand at concentrations that ranged from 0-10^−5 M. The assays were formatted for a 96 well minitube system. Incubations were carried out at 4° C. until equilibrium was achieved. Non-specific binding was defined as that binding remaining in the presence of 1000 nM of the appropriate unlabeled retinoic acid isomer. At the end of the incubation period, 50 μl of 6.25% hydroxyapitite was added in the appropriate wash buffer. The wash buffer consisted of 100 mM KCl, 10 mM Tris and either 5 mM CHAPS (RXR α, β, τ) or 0.5% Triton X-100 (RAR α, β, τ). The mixture was vortexed and incubated for 10 minutes at 4° C., centrifuged and the supernatant removed. The hydroxyapitite was washed three more times with the appropriate wash buffer. The receptor-ligand complex was adsorbed by the hydroxyapitite. The amount of receptor-ligand complex was determined by liquid scintillation counting of hydroxyapitite pellet.
(§4) After correcting for non-specific binding, IC50 values were determined. […] The IC50 value was determined graphically from a loglogit plot of the data. The Kd values were determined by application of the ChengPrussof equation to the IC50 values, the labeled ligand concentration and the Kd of the labeled ligand.
(§5) The results of ligand binding assay are expressed in Kd numbers. (See Cheng et al. Biochemical Pharmacology Vol. 22 pp 3099-3108, expressly incorporated herein by reference.)

RARβ = target: T2, RARβ (Homo sapiens, UniProt P10826); assay: Ligand binding assay; details: receptor expressed in Baculovirus; competition with [3H] retinoic acid; Cheng-Prusoff from IC50
T2 construct: made in house; used as extract protein
T2 sequence (P10826 1-455): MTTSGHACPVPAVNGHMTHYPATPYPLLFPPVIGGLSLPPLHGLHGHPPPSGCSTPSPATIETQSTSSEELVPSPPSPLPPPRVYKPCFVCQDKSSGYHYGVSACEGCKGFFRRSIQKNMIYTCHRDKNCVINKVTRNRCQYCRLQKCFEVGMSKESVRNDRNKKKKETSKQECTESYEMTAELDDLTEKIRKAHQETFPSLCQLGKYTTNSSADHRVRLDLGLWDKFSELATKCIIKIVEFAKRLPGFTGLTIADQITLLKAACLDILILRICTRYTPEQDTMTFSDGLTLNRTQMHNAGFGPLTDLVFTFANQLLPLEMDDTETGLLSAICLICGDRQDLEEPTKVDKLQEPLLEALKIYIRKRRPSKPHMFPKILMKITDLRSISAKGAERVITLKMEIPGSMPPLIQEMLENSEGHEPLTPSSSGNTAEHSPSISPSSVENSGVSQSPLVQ
Method: as §1, §2, §3, §4, §5

RPMI 8226 = assay: Cancer cell line assay, incorporation of 3H-thymidine; format: cell-based, human; details: 10^−11 to 10^−6 molar concentration range, 96 hours
Method: All trans-Retinoic acid (t-RA) (Sigma Chemicals Co., St. Louis, M.) was stored at −70° C. Prior to each experimet the compound was dissolved in 100% ethanol at 1 mM and diluted in culture medium immediately before use. All experiments were performed in subdued light. Controls were assayed using the same concentration of ethanol as present in the experimental plates and this concentration of diluent had no effect in either assay.
All cell lines, RPMI 8226, ME-180 and AML-193 were obtained from the American Type Culture Collection (ATCC, Rockville, Md.). RPMI 8226 is a human hematopoietic cell line obtained from the peripheral blood of a patient with multiple myeloma. The cells resemble the lymphoblastoid cells of other human lymphocyte cell lines and secrete […] light chains of immunoglobulin. RPMI-8226 cells are grown in RPMI medium (Gibco) supplemented with 10% fetal bovine serum, glutamine and antibiotics. The cells were maintained as suspension cultures grown at 37° C. in a humidified atmosphere of 5% CO2 in air. The cells were diluted to a concentration of 1×10^5/ml twice a week.
The method used for determination of the incorporation of radiolabeled thymidine was adapted from the procedure described by Shrivastav et al. RPMI-8226 cells were plated in a 96 well round bottom microtiter plate (Costar) at a density of 1,000 cells/well. To appropriate wells, retinoid test compounds were added at the final concentrations indicated for a final volume of 150 μl/well. The plates were incubated for 96 hours at 37° C. in a humidified atmosphere of 5% CO2 in air. Subsequently, 1 μCi of (5′-^3H]-thymidine (Amersham, U.K. 43 Ci/mmol specific activity) in 25 μl culture medium was added to each well and the cells were incubated for an additional 6 hours. The cultures were further processed as described below.
All cells lines were then processed as follows: the cellular DNA was precipitated with […] trichloroacetic acid onto glass fiber filter mats using a SKATRON multi-well cell harvester (Skatron Instruments, Sterling Va.). Radioactivity incorporated into DNA, as a direct measurement of cell growth, was measured by liquid scintillation counting. The numbers represent the mean disintegrations per minute of incorporated thymidine from triplicate wells±SEM.

SMILES	Kd (RXRβ) [nM]	Kd (RARβ) [nM]	proliferation of the tumor cell line (incorporation of radioactive labeled thymidine) (RPMI 8226)
CC1(C)CCC(C)(C)c2cc(C(=O)Nc3cc(F)c(C(=O)O)c(F)c3)ccc21 [Compound 38]	> 1000	> 1000	
CC1(C)CC(C)(C)c2cc(C(=O)Nc3cc(F)c(C(=O)O)c(F)c3)cc(C(F)(F)F)c2O1 [Compound 18, 2,6-Difluoro-4-[(2′,2′,4′,4′-tetramethyl-8′-trifluoromethylchroman-6′-yl)carbamoyl]benzoic Acid]	> 1000	> 1000	
CC1(C)CCC(C)(C)c2cc(C(=O)Nc3ccc(C(=O)O)cc3)c(F)cc21 [Compound 4]	> 1000	23	
CC1(C)CCC(C)(C)c2cc(C(=O)Nc3ccc(C(=O)O)c(F)c3)c(O)cc21 [Compound 8]	> 1000	> 1000	significant decrease in the proliferation
CC1(C)CCC(C)(C)c2cc(C(=S)Nc3ccc(C(=O)O)cc3)ccc21 [Compound 26]	> 1000	> 1000	
CC1(C)CCC(C)(C)c2c1cc(C(=O)Nc1cc(F)c(C(=O)O)c(F)c1)c(O)c2Br [Compound 36]	> 1000	> 1000	

Continued, in another order:

Kd (RXRβ) [nM]	Kd (RARβ) [nM]	SMILES	proliferation of the tumor cell line (incorporation of radioactive labeled thymidine) (RPMI 8226)
> 1000	> 1000	CC1(C)CC(C)(C)c2cc(C(=O)Nc3ccc(C(=O)O)c(F)c3)ccc2O1 [Compound 32]	
> 1000	> 1000	CC1(C)CC(C)(C)c2cc(C(=O)Nc3ccc(C(=O)O)c(F)c3)cc(Br)c2O1 [Compound 12]	significant decrease in the proliferation
> 1000	> 1000	CC1(C)CC(C)(C)c2cc(C(=O)Nc3ccc(C(=O)O)c(F)c3)cc(N=[N+]=[N-])c2O1 [Compound 16, 2-Fluoro-4-[(21′,2′,4′,4′-tetramethyl-8′-azidochroman-6′-yl)carbamoyl]benzoic Acid]	
> 1000	> 1000	CC1(C)CC(C)(C)c2cc(C(=O)Nc3ccc(C(=O)O)c(F)c3)cc(I)c2O1 [Compound 20]	significant decrease in the proliferation
> 1000	480	CC1(C)CCC(C)(C)c2cc(C(=O)Nc3ccc(C(=O)O)c(F)c3)ccc21 [Compound 2]	
> 1000	> 1000	CC1(C)CC(C)(C)c2cc(C(=O)Nc3ccc(C(=O)O)c(F)c3)cc(C(F)(F)F)c2O1 [Compound 14]	significant decrease in the proliferation
> 1000	> 1000	CC1(C)CCC(C)(C)c2c(Br)cc(C(=O)Nc3ccc(C(=O)O)c(F)c3)cc21 [Compound 6]	significant decrease in the proliferation
> 1000	> 1000	Cc1cc(C(=O)Nc2ccc(C(=O)O)c(F)c2)cc2c1OC(C)(C)CC2(C)C [Compound 22]	
